Values of other authors, collected in PMC8583936, “Machine Learning Assisted Approach for Finding Novel High Activity Agonists of Human Ectopic Olfactory Receptors” (International Journal of Molecular Sciences, 2021).
Like-named read-outs stand apart in the source and are kept apart here.

How the values were obtained:
OR1A1 = biological target: T1, OR1A1 (Homo sapiens, UniProt Q9P1Q5); settings: cited from earlier work
T1 sequence (Q9P1Q5 1-309): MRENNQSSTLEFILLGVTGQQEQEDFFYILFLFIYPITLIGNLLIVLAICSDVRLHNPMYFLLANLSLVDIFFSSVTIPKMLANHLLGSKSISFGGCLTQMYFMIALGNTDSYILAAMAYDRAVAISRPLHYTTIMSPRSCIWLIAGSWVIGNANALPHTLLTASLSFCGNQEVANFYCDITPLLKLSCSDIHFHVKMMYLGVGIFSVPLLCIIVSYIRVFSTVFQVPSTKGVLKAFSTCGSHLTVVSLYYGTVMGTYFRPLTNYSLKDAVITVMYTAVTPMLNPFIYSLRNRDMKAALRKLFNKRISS

OR2W1 = biological target: T2, OR2W1 (Homo sapiens, UniProt Q9Y3N9); settings: cited from earlier work
T2 sequence (Q9Y3N9 1-320): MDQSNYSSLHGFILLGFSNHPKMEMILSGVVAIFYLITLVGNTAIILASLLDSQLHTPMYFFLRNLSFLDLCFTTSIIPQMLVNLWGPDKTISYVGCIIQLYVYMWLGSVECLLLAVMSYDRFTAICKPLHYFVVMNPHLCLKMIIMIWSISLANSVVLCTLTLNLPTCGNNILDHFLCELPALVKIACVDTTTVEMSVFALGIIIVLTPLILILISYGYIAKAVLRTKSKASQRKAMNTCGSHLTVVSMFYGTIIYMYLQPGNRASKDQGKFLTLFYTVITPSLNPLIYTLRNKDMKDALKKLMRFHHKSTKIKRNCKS

[1] = Table S1, ref Supplement references [1]-[9] as printed after each odorant name
[2] = Table S2, ref Supplement references [2]-[12] as printed after each odorant name

Compound	Class (agonist / non-agonist / conflicting info.) for OR1A1 (OR1A1; [1])	Class (agonist / non-agonist / antagonist / conflicting info.) for OR2W1 (OR2W1; [2])	Class (agonist / non-agonist / conflicting info.) for OR1A1 (OR1A1)	Class (agonist / non-agonist / antagonist / conflicting info.) for OR2W1 (OR2W1)
CC(=O)OC/C=C(\C)CCC=C(C)C [Geranyl acetate]	Conflicting info.	Conflicting info.	–	–
CCCCCC(=O)OCC [Ethyl hexanoate]	Agonist	Non-agonist	–	–
CCOc1cc(C=O)ccc1O [Ethyl vanillin]	Conflicting info.	Conflicting info.	–	–
C=CCOC(=O)Cc1ccccc1 [Allyl phenylacetate]	–	–	Agonist	Agonist
CCCCC(=O)OCC [Ethyl pentanoate]	–	–	Non-agonist	Non-agonist
CCCC(=O)O [Butyric acid]	Conflicting info.	Conflicting info.	–	–
CCOC(=O)C(C)CC (stereo not shown) [Ethyl 2-methylbutyrate]	Non-agonist	Non-agonist	–	–
O=C(O)Cc1ccccc1 [2-Phenylacetic acid]	–	–	Non-agonist	Non-agonist
CC(S)CCS (stereo not shown) [1,3-butane dithiol]	Non-agonist	Non-agonist	–	–
CCC(C)c1nccnc1OC (stereo not shown) [3-secbutyl-2-methoxypyrazine]	Non-agonist	Non-agonist	–	–
CC(C)=CCC/C(C)=C/CO [Geraniol]	Conflicting info.	Conflicting info.	–	–
CCCCC(=O)CC [3-heptanone]	Agonist	Agonist	–	–
CC(C)CO [Isobutyl alcohol]	Non-agonist	Non-agonist	–	–
COc1cc(C)ccc1O [2-methoxy-4-methylphenol]	Non-agonist	Non-agonist	–	–
SCCc1ccccc1 [2-phenylethanethiol]	Agonist	Agonist	–	–
CC(=O)Oc1ccccc1 [Phenyl acetate]	Non-agonist	Non-agonist	–	–
CC/C=C\CC/C=C/C=O [E,Z-2,6-nonadienal]	Non-agonist	Non-agonist	–	–
CC(=O)OC(C)(C)C1CC=C(C)CC1 (stereo not shown) [Terpinyl acetate]	Conflicting info.	Conflicting info.	–	–
CCCSSSCCC [Dipropyl trisulfide]	Non-agonist	Non-agonist	–	–
CSSSC [Dimethyl trisulfide]	Non-agonist	Non-agonist	–	–
CCCCC=O [Pentanal]	Non-agonist	Non-agonist	–	–
COc1cccc(OC)c1O [2,6-dimethoxyphenol]	Non-agonist	Non-agonist	–	–
CCCCCCCCS [Octanethiol]	–	–	Conflicting info.	Agonist
CCCCO [1-butanol]	Non-agonist	Non-agonist	–	–

Compound	Class (agonist / non-agonist / conflicting info.) for OR1A1 (OR1A1; [1])	Class (agonist / non-agonist / antagonist / conflicting info.) for OR2W1 (OR2W1; [2])	Class (agonist / non-agonist / conflicting info.) for OR1A1 (OR1A1)	Class (agonist / non-agonist / antagonist / conflicting info.) for OR2W1 (OR2W1)
C=CCc1ccc(OC)cc1 [Estragole]	–	–	Agonist	Agonist
CCCCCC[C@H](C)O [(S)-(+)-2-octanol]	Non-agonist	Non-agonist	–	–
CCCCCC(C)=O [2-heptanone]	Conflicting info.	Conflicting info.	–	–
Laevo-arabinose	Conflicting info.	Non-agonist	–	–
CCCCCCCCCC(=O)OCC [Ethyl decanoate]	–	–	Non-agonist	Non-agonist
CCCCCc1ccccn1 [2-pentylpyridine]	Agonist	Agonist	–	–
CC(=O)c1ccco1 [2-Furyl methyl ketone]	Non-agonist	Non-agonist	–	–
(+)-Fenchone	Non-agonist	Non-agonist	–	–
CCC(=O)C(C)=O [2,3-pentanedione]	–	–	Non-agonist	Non-agonist
CCOC(=O)/C=C/c1ccccc1 [Ethyl cinnamate]	Non-agonist	Non-agonist	–	–
CCCC(C)=O [2-pentanone]	Non-agonist	Non-agonist	–	–
CCC(C)C(=O)OC (stereo not shown) [Methyl 2-methylbutyrate]	Non-agonist	Non-agonist	–	–
CC(=O)C(C)O (stereo not shown) [Acetoin]	Non-agonist	Non-agonist	–	–
CCCCC(C)=O [2-hexanone]	–	–	Non-agonist	Agonist
CCCC/C=C\C=C\C=O [2,4-nonadienal, (2e,4z)-]	Non-agonist	Non-agonist	–	–
CCCCC1CCC(=O)O1 (racemic) [(R/S)-γ-Octalactone]	Non-agonist	Agonist	–	–
CCC(=O)C(=O)CC [3,4-hexanedione]	–	–	Non-agonist	Agonist
CC(=O)c1ccccc1N [2'-aminoacetophenone]	–	–	Non-agonist	Non-agonist
CCCCCCCC1CCC(=O)O1 (stereo not shown) [Gamma-undecalactone]	–	–	Non-agonist	Non-agonist
CCCCCCCCC=CC=O [2-undecenal]	Non-agonist	Non-agonist	–	–
Cc1cnc(C)c(C)n1 [Trimethyl pyrazine]	Non-agonist	Non-agonist	–	–
CCOC(=O)C(C)C [Ethyl isobutyrate]	Non-agonist	Non-agonist	–	–
CCCCC/C=C\C=O [2-octenal, (2z)-]	Non-agonist	Non-agonist	–	–
